The source made the active and inactive calls. How the calls were made is not given here.
Target: Prostaglandin E2 receptor EP2 subtype (Homo sapiens) (UniProt P43116)
Assay: EP2 receptor modulators, dose response, cell-based, human EP2, PGE2 EC50 shift (AID 1421)
Details: EP2-expressing cells, PGE2 EC50 shift by compound

Sequence of Prostaglandin E2 receptor EP2 subtype (Homo sapiens) (P43116 whole entry, looked up): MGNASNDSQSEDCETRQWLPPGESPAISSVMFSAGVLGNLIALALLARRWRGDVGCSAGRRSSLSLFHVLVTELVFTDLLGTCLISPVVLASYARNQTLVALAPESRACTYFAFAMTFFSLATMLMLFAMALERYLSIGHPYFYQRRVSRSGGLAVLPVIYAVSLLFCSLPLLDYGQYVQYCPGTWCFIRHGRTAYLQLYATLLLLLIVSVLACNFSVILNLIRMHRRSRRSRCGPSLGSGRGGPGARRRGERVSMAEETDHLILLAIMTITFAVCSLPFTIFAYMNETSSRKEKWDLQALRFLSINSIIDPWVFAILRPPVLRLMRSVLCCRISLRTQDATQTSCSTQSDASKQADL

outcome	SMILES
active	FC(F)(F)c1cc(-c2ccccc2)nc(N2CCOCC2)n1
active	CSc1ncc2c(n1)-c1cc(C)ccc1SC2
active	COc1ccc(-c2cc(C(F)(F)F)nc(N3CCOCC3)n2)cc1OC
active	N#Cc1cn(-c2ccccc2)nc1-c1cc2ccccc2oc1=O
active	Fc1ccc(Oc2nc(-c3ccccc3)nnc2C(F)(F)F)cc1
active	CCSc1cc(N2CCOCC2)nc(-c2ccccc2)n1
active	CCCCn1c(=O)c2ccccc2c2ccccc2c1=O
active	O=C(O)c1ccc(-c2nc(-c3cccc(C(F)(F)F)c3)cs2)cc1
active	COc1cc2c(cc1OC)-c1cc(N3CCCc4ccccc43)nc(=O)n1CC2
active	O=C(Nc1ccccc1Sc1ccccc1)c1ccc(F)cc1

SMILES	outcome
CCOP(=S)(OCC)Oc1nc(Cl)c(Cl)cc1Cl	active

Same assay, conditions: EP2-expressing cells, PGE2 EC50 shift by compound; measured here: PGE2 EC50 at 6.7 uM compound

PGE2 EC50 with compound	SMILES
1.28 nM	CCCCn1c(-c2csc(CCC)c2)n[nH]c1=S
0.66 nM	O=C(NNc1ccc([N+](=O)[O-])cc1[N+](=O)[O-])C1C2CCCCC21 (stereo not drawn)
0.33 nM	O=c1cc(N2CCCCC2)c(-c2ccccc2)nn1Cc1cccc(F)c1
0.34 nM	Cc1onc(-c2ccccc2)c1C(=O)N(Cc1ccco1)Cc1cccs1
0.62 nM	CCOc1cccc(CNc2ccc(O)cc2)c1OCc1ccccc1Cl
2.83 nM	CCn1c2ccccc2c2cc(Nc3cc(C)nc4ncnn34)ccc21
1.33 nM	N#Cc1sc2nc(N3CCCCC3)c3c(c2c1N)CCCC3
0.96 nM	CCOC(=O)c1c(N)nn(C(=O)C(C)(C)C)c1-c1ccccc1
1.59 nM	FC(F)(F)c1cc(-c2ccccc2)nc(N2CCOCC2)n1
0.99 nM	COc1ccc(C(=O)NCCCN2CCOCC2)cc1OC
1.13 nM	CNC(=O)c1cc2c(=O)n3cc(C)ccc3nc2n(C(C)C)c1=N
1.01 nM	Cc1ccccc1NC1=C(C(=O)c2ccccc2)N(C)S(=O)(=O)c2ccccc21
1.23 nM	Cc1ccc(C2CC2c2n[nH]c(=S)n2-c2ccc(Cl)cc2)cc1 (stereo not drawn)
1.07 nM	CN(Cc1cccs1)c1nc(-c2cccnc2)nc2ccccc12
0.62 nM	C=CCOc1ccc2c(c1)C(=NO)c1cc(OCC=C)ccc1-2
1.3 nM	CCOC(=O)C1=CN(CC2CCCO2)C=C(C(=O)OCC)C1c1ccccc1C(F)(F)F (stereo not drawn)
1.02 nM	CCOc1ccc(OCC)c(NC(=O)CN2CCN(c3cccc(C)c3)CC2)c1
0.95 nM	Cc1ccc(CN2C(=O)/C(=C\c3ccc(C(=O)NCc4cccnc4)cc3)Oc3ccccc32)cc1
1.01 nM	O=c1c2c(n3nnnc3n1-c1ccccc1)-c1ccccc1CC21CCCC1
1.59 nM	COc1ccccc1C1c2[nH]c3ccccc3c2CCN1Cc1cnc(C)s1 (stereo not drawn)
1.22 nM	Cc1noc(C)c1CSc1ncnc2sc3c(c12)CCCCC3
1.55 nM	Cc1ccccc1Nc1c(-c2ccccn2)nc2ccccn12
2.7 nM	Fc1cccc(CSc2ncnc3c2oc2ccccc23)c1

PGE2 EC50 with compound	SMILES
0.93 nM	CSc1ncc2c(n1)-c1cc(C)ccc1SC2
0.71 nM	COc1ccc(C)cc1-n1c(=O)c2ccccc2c2ccccc2c1=O
0.65 nM	CNC[C@H](O)c1ccc(O)c(O)c1
2.7 nM	CCC1Oc2ccccc2N(Cc2ccccc2C)C1=O (stereo not drawn)
0.31 nM	Cc1ccc2nc(-c3ccncc3)cc(-c3ccccc3)c2c1
1.53 nM	COc1ccc(-c2cc(C(F)(F)F)nc(N3CCOCC3)n2)cc1OC
1.08 nM	c1ccc(Cn2c(-c3ccccc3)nc3nc4ccccc4nc32)cc1
2.78 nM	Cc1ccc(C(=O)c2coc3ccc(OCC(=O)O)cc23)cc1
0.54 nM	Cc1cc(O)c(C=O)c2c1C(=O)Oc1c(COC(=O)/C=C/C(=O)O)c(O)c(C(=O)O)c(C)c1O2
1.35 nM	CCOC(=O)c1ccccc1NC(=O)C(C)Oc1ccccc1 (stereo not drawn)
0.95 nM	C/C(CCc1oc2ccccc2c1-c1ccc(C)o1)=N/O
0.99 nM	N#Cc1cn(-c2ccccc2)nc1-c1cc2ccccc2oc1=O
1.51 nM	Cc1cccc(Oc2sc(C(=O)c3ccccc3)c(N)c2C#N)c1
0.62 nM	C=CCn1c(SCc2c(C)noc2C)nc2sc(C)c(C)c2c1=O
1.07 nM	CN(C)Cc1ccccc1Sc1cccc2ccccc12
0.9 nM	CC1(c2ccccc2)CC(C)(C)N(C(=O)C2CCCO2)c2ccccc21 (stereo not drawn)
1.01 nM	Brc1ccc(-c2ccc(/C=N/Nc3nc(N4CCOCC4)nc(N4CCOCC4)n3)o2)cc1
0.66 nM	Fc1ccc(Oc2nc(-c3ccccc3)nnc2C(F)(F)F)cc1
1.09 nM	O=c1c2ccccc2c2ccccc2c(=O)n1Cc1ccco1
1.49 nM	C=CCn1c(SCc2c(C)noc2C)nc2ccccc2c1=O
2.83 nM	Cc1ccc2[nH]c3c(=S)nc[nH]c3c2c1
0.93 nM	COc1cccc(C(=O)Nc2cccc(OCC(=O)O)c2)c1
0.97 nM	Cn1c(=O)c2c(ncn2CCSS(=O)(=O)O)n(C)c1=O

SMILES	PGE2 EC50 with compound
CC[C@@H]1C(=O)OC[C@@H]1Cc1cncn1C	1.8 nM

Source: PubChem BioAssay AID1421 (Emory University Molecular Libraries Screening Center, 2008)
